This passage reports EC50 results from patent US7897626B2, “2-substituted thiazole-4-carboxamide derivatives, their preparation and use as pharmaceuticals” (Bayer Schering Pharma AG, priority 2007, dated 2011).

A word on the EC50: it is the concentration at which the effect is half-maximal.

The subject of the assay is TLR7. The assay can be described thus: TLR-induced cytokine release (TNF-alpha) in human PBMC, TLR7 ligand stimulation. Type of assay: cell-based. The conditions noted are these: human PBMC incubated 18 hours with test substance and TLR7 ligand; TNF-alpha in supernatant by ELISA; read-out: EC50 (TNF-α TLR7). On the procedure: TLR-Induced Cytokine Release in Human “Peripheral Blood Mononuclear Cells” (PBMC)
PBMCs isolated from human whole blood are stimulated using a TLR ligand.
The cytokine determination is carried out by means of ELISA kits; a proliferation/cell metabolism determination is carried out using Alamar Blue.
For the cell preparation, about 200 ml of blood are treated with an anticoagulant (e.g. citrate Monovettes). Per Leucosep tube, 15 ml of Histopaque (room temperature, RT) are poured in and forced downwards through the inserted frit by brief initial centrifugation (one minute at 1000×g, RT). 20 ml of blood are added to the tubes prepared in this way and centrifuged at 800×g for 15 minutes (RT). After centrifugation, the following layered arrangement results from the top to the bottom:
plasma-PBMC-Histopaque-filter disc-Histopaque-erythrocytes and granulocytes. The supernatant plasma is aspirated. The PBMC are transferred together with the underlying Histopaque to a new 50 ml tube, the contents of two Leucosep tubes always being added to one 50 ml tube. The 50 ml tubes are then filled to 50 ml with PBS. This cell suspension is centrifuged at 300×g (RT) for 10 minutes.
The liquid supernatant is tipped off and the cell pellet is resuspended with a little PBS and subsequently filled to 50 ml with PBS. This washing step is repeated twice. The resulting pellet is taken up in a defined volume of medium (with additives). For the testing of the substances, PBMC are incubated for 18 hours with titrated concentrations of the test substances, e.g. in the presence or absence of TLR7 or TLR9 ligands. On the next day, the supernatants are investigated for the content of TNF-alpha or other cytokines or chemokines by means of specific ELISA. The metabolic activity of the treated cells is determined with the aid of Alamar Blue.
In general terms: In an ELISA, binding on a coated surface is turned into a signal by an enzyme label.

For `Cc1cc(-c2nc(C(=O)Nc3ccccc3C(N)=O)cs2)cs1` [Example 2, N-[2-(Aminocarbonyl)phenyl]-2-(5-methyl-3-thienyl)-4-thiazole-carboxamide], the EC50 was 3800 nM.
Regarding `Cc1ccc(C(N)=O)c(NC(=O)c2csc(-c3cn[nH]c3)n2)c1` [Example 3, N-[2-(Aminocarbonyl)-5-methylphenyl]-2-(1H-pyrazol-4-yl)thiazole-4-carboxamide], the EC50 worked out at 120 nM.
Then `Cn1cc(NC(=O)c2csc(-c3cn[nH]c3)n2)c(C(N)=O)n1` [Example 1, 2-(1H-Pyrazol-4-yl)thiazole-4-(3-carbamoyl-1-methyl-1H-pyrazol-4-yl)-carboxamide], with 50 nM.
